Cl.N=C(N)N
solubility (mole fraction)
Conditions	278.15 K	283.15 K	288.15 K	293.15 K	298.15 K	303.15 K	308.15 K	313.15 K	318.15 K	323.15 K
in 2-butoxyethanol	0.104	0.111	0.126	0.138	0.153	0.169	0.185	0.201	0.216	0.236
in 2-ethoxyethanol	0.252	0.263	0.275	0.284	0.296	0.308	0.321	0.334	0.349	0.362
in 2-methoxyethanol	0.293	0.302	0.312	0.323	0.333	0.345	0.355	0.368	0.381	0.394
in 2-propoxyethanol	0.158	0.172	0.185	0.2	0.216	0.232	0.247	0.263	0.28	0.298
in DMAc	0.265	0.283	0.302	0.321	0.34	0.358	0.376	0.394	0.415	0.434
in DMF	0.326	0.345	0.368	0.384	0.402	0.42	0.441	0.456	0.476	0.495
in NMP	0.116	0.128	0.142	0.154	0.17	0.185	0.201	0.216	0.236	0.253
in ethanol	0.0832	0.0916	0.1	0.108	0.117	0.128	0.139	0.152	0.163	0.172
in isopropanol	0.0552	0.0623	0.0699	0.0803	0.0886	0.0991	0.11	0.122	0.135	0.149
in methanol	0.156	0.169	0.179	0.191	0.202	0.214	0.227	0.239	0.253	0.265
in n-propanol	0.0373	0.0447	0.0493	0.0571	0.066	0.0733	0.083	0.0939	0.103	0.115

Source: BigSolDB 2.1
